The text below walks through data of PubChem BioAssay AID1963866 (Molecular Pharmacology Branch, DTP, NCI, 2024).

The assay concerns PDC KRAS tumor spheroids with HUVEC/MSC, viability. Nature of the assay: Anticancer human tumor 349418-098-R-PDC patient-derived lung adenocarcinoma cell line growth inhibition [KRAS2]. The settings on record: for viability, T/C: stronger effect = lower value. The method, boiled down: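 KRAS-mutant tumor cells were grown as spheroids with HUVEC endothelial cells and human MSCs as stroma. Targeted agents were tested alone and with KRAS pathway inhibitors. Doses started at or near clinical Cmax, or 10 microM, descending half-log.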

Setting [1] is: curve of first compound, second compound 0.0316 µM.
Setting [2] is: curve of first compound, second compound 0.1 µM.
Where [3] appears, read: curve of first compound, second compound 0.316 µM.
Setting [4] is: curve of first compound, second compound 1 µM.
[5] abbreviates: curve of first compound, second compound 3.16 µM.
Where [6] appears, read: second compound 0.0316 µM, first compound 0.0316 µM.
Setting [7] is: second compound 0.0316 µM, first compound 0.1 µM.
The mark [8] stands for this setting: second compound 0.0316 µM, first compound 0.316 µM.
Setting [9] is: second compound 0.0316 µM, first compound 1 µM.
The mark [10] stands for this setting: second compound 0.1 µM, first compound 0.0316 µM.
Where [11] appears, read: second compound 0.1 µM, first compound 0.1 µM.
[12] abbreviates: second compound 0.1 µM, first compound 0.316 µM.
Setting [13] is: second compound 0.1 µM, first compound 1 µM.
Setting [14] is: second compound 0.1 µM, first compound 3.16 µM.
Where [15] appears, read: second compound 0.1 µM, first compound 10 µM.
Where [16] appears, read: second compound 0.316 µM, first compound 0.0316 µM.
Where [17] appears, read: second compound 0.316 µM, first compound 0.1 µM.
[18] abbreviates: second compound 0.316 µM, first compound 0.316 µM.
Setting [19] is: second compound 0.316 µM, first compound 1 µM.
The mark [20] stands for this setting: second compound 0.316 µM, first compound 3.16 µM.
[21] abbreviates: second compound 0.316 µM, first compound 10 µM.
[22] abbreviates: second compound 1 µM, first compound 0.0316 µM.
[23] abbreviates: second compound 1 µM, first compound 0.1 µM.
The mark [24] stands for this setting: second compound 1 µM, first compound 0.316 µM.
The mark [25] stands for this setting: second compound 1 µM, first compound 1 µM.
[26] abbreviates: second compound 1 µM, first compound 3.16 µM.
Setting [27] is: second compound 1 µM, first compound 10 µM.
Setting [28] is: second compound 3.16 µM, first compound 0.0316 µM.
The mark [29] stands for this setting: second compound 3.16 µM, first compound 0.1 µM.
The mark [30] stands for this setting: second compound 3.16 µM, first compound 0.316 µM.
The mark [31] stands for this setting: second compound 3.16 µM, first compound 1 µM.
Setting [32] is: second compound 3.16 µM, first compound 3.16 µM.
[33] abbreviates: second compound 3.16 µM, first compound 10 µM.
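Note: spheroids exposed to compounds for seven days before readout.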

As usually defined, the IC50 is the concentration needed to halve the response being measured. As a reminder, the viability, T/C is the ratio of treated to control. For the compound `COc1cc2nccc(Oc3ccc(NC(=O)C4(C(=O)Nc5ccc(F)cc5)CC4)cc3)c2cc1OC` + C=CC(=O)N1CCN(c2nc(OCC3CCCN3C)nc3c2CCN(c2cccc4cccc(C)c24)C3)CC1CC#N, the IC50 under setting [1] turned out to be 1560 nM; the half-inhibitory concentration (IC50) under setting [2] was found to be 1570 nM; the IC50 under setting [3] worked out at 1530 nM; the IC50 under setting [4] was determined as 588 nM; the IC50 under setting [5] was less than 31.6 nM. The viability, T/C is, setting by setting: under setting [6], 96.3%; under setting [7], 96.9%; under setting [8], 92.2%; under setting [9], 72.5%; (second compound 0.0316 µM, first compound 3.16 µM) 10.1%; (second compound 0.0316 µM, first compound 10 µM) 19.4%. Also, the viability, T/C by setting is: under setting [10], 88.5%; under setting [11], 95.8%; under setting [12], 93.7%; under setting [13], 74.6%; under setting [14], 7.5%; under setting [15], 15.7%. The viability, T/C under setting [16] is 93.2%; the viability, T/C under setting [17] was 88.6%; the viability, T/C under setting [18] is 85.3%; the viability, T/C under setting [19] was 72.8%; the viability, T/C under setting [20] is 7.47%; the viability, T/C under setting [21] is 15.3%. Also, the viability, T/C under setting [22] was 73.5%; the viability, T/C under setting [23] is 79.7%; the viability, T/C under setting [24] was 68.4%; the viability, T/C under setting [25] is 33.7%; the viability, T/C under setting [26] is 1.78%; the viability, T/C under setting [27] is 0.85%. For the same compound, the viability, T/C was 0.14% under setting [28]; 0.28% under setting [29]; 0.29% under setting [30]; 0.22% under setting [31]; 0.19% under setting [32]; 0.14% under setting [33].
Take `CC1(C)CCC(CN2CCN(c3ccc(C(=O)NS(=O)(=O)c4ccc(NCC5CCOCC5)c([N+](=O)[O-])c4)c(Oc4cnc5[nH]ccc5c4)c3)CC2)=C(c2ccc(Cl)cc2)C1`: the viability, T/C runs as follows: (compound 0.0316 µM) 101% [middle of 5 runs]; (compound 0.1 µM) 97.5% [middle of 5 runs]; (compound 0.316 µM) 91.1% [middle of 5 runs]; (compound 1 µM) 88.3% [middle of 5 runs]; (compound 3.16 µM) 21.2% [middle of 5 runs]; (compound 10 µM) 5.14% [middle of 5 runs]. The IC50 (curve of compound) is 1.89 µM [middle of 5 runs].
Turning to `CC1(C)CCC(CN2CCN(c3ccc(C(=O)NS(=O)(=O)c4ccc(NCC5CCOCC5)c([N+](=O)[O-])c4)c(Oc4cnc5[nH]ccc5c4)c3)CC2)=C(c2ccc(Cl)cc2)C1` + CNCc1ccccc1-c1csc(C(C)Nc2nc(C)nc3cc(OC)c(OC)cc23)c1, the IC50 is 1790 nM under setting [2]; 1690 nM under setting [3]; 1280 nM under setting [4]; less than 31.6 nM under setting [5]; less than 31.6 nM (curve of first compound, second compound 10 µM). For the same compound, the viability, T/C runs as follows: under setting [10], 101%; under setting [11], 99.7%; under setting [12], 94.6%; under setting [13], 89.7%; under setting [14], 11.3%; under setting [15], 5.21%. For the same compound, the viability, T/C is 97% under setting [16]; 96.4% under setting [17]; 87% under setting [18]; 82.6% under setting [19]; 11.5% under setting [20]; 3.91% under setting [21]. The viability, T/C is 74.1% under setting [22]; 66.9% under setting [23]; 72% under setting [24]; 61.6% under setting [25]; 6.96% under setting [26]; 2.51% under setting [27]. Also, the viability, T/C reads like this: under setting [28], 0.13%; under setting [29], 0.14%; under setting [30], 0.11%; under setting [31], 0.12%; under setting [32], 0.12%; under setting [33], 0.15%. Further, the viability, T/C is 0.11% (second compound 10 µM, first compound 0.0316 µM); 0.12% (second compound 10 µM, first compound 0.1 µM); 0.1% (second compound 10 µM, first compound 0.316 µM); 0.09% (second compound 10 µM, first compound 1 µM); 0.08% (second compound 10 µM, first compound 3.16 µM); 0.15% (second compound 10 µM, first compound 10 µM).
Consider `CCN1CCN(Cc2ccc(Nc3ncc(F)c(-c4cc(F)c5nc(C)n(C(C)C)c5c4)n3)nc2)CC1`, for which the viability, T/C is 60.9% [middle of 5 runs] (compound 0.00316 µM); 35.7% [middle of 5 runs] (compound 0.01 µM); 19.6% [middle of 5 runs] (compound 0.0316 µM); 16.7% [middle of 5 runs] (compound 0.1 µM); 14.5% [middle of 5 runs] (compound 0.316 µM); 5.13% [middle of 5 runs] (compound 1 µM).
Turning to `CCN1CCN(Cc2ccc(Nc3ncc(F)c(-c4cc(F)c5nc(C)n(C(C)C)c5c4)n3)nc2)CC1` + C=CC(=O)N1CCN(c2nc(OCC3CCCN3C)nc3c2CCN(c2cccc4cccc(C)c24)C3)CC1CC#N, the IC50 under setting [1] turned out to be 4.51 nM; the IC50 under setting [2] is 6.76 nM; the half-inhibitory concentration (IC50) under setting [3] came out at 6 nM; the IC50 under setting [4] is less than 3.16 nM; the IC50 under setting [5] was less than 3.16 nM. For the same compound, the viability, T/C was 56% (second compound 0.0316 µM, first compound 0.00316 µM); 37.7% (second compound 0.0316 µM, first compound 0.01 µM); 19.3% under setting [6]; 16.6% under setting [7]; 14.1% under setting [8]; 4.49% under setting [9]. In addition, the viability, T/C is, setting by setting: (second compound 0.1 µM, first compound 0.00316 µM) 80.7%; (second compound 0.1 µM, first compound 0.01 µM) 31.3%; under setting [10], 20.2%; under setting [11], 15.4%; under setting [12], 10.2%; under setting [13], 3.97%. Also, the viability, T/C is 64.8% (second compound 0.316 µM, first compound 0.00316 µM); 40.2% (second compound 0.316 µM, first compound 0.01 µM); 15.8% under setting [16]; 19.1% under setting [17]; 10.4% under setting [18]; 2.4% under setting [19]. Also, the viability, T/C (second compound 1 µM, first compound 0.00316 µM) is 46.1%; the viability, T/C (second compound 1 µM, first compound 0.01 µM) was 24.9%; the viability, T/C under setting [22] is 15.2%; the viability, T/C under setting [23] is 12.4%; the viability, T/C under setting [24] was 8.99%; the viability, T/C under setting [25] was 0.45%. The viability, T/C is 0.15% (second compound 3.16 µM, first compound 0.00316 µM); 0.09% (second compound 3.16 µM, first compound 0.01 µM); 0.07% under setting [28]; 0.08% under setting [29]; 0.08% under setting [30]; 0.19% under setting [31].
